# Measurements: patent US20100190846A1, “MICROBICIDAL AGENT AND MICROBICIDAL COMPOSITION” (priority 2006, published 2010)
# Legend:
# Assay in all cases: Agar dilution method microbicidal test
# Assay type in all cases: cell-based
# [1] = tested on: Candida sp. On Growth on agar plate: key: +: grew; −: did not grow.
# Experimental: (§1) As microbicidal test method for trans-p-coumaric acid, 3-hydroxypyridine, p-hydroxybenzaldehyde and vanillin, the agar dilution method was employed.
# (§2) In agar dilution method, a solution in which a sample is dissolved is serially diluted several times, and each of the diluted sample solutions is mixed with agar medium to prepare plate agars having various sample concentration. Then bacteria is inoculated onto the plate agars. In cases where the sample has a microbicidal activity, the growth of the bacteria on the plates can be inhibited. The lowest concentration which can inhibit the growth of the bacteria is referred to as Minimum Inhibitory Concentration (MIC), thereby judging the degree of a microbicidal activity of the sample.
# (§3) First, 400 mg of sample was dissolved in 1 mL of DMSO to prepare 400 mg/mL sample solution. Then 0.5 mL of this 400 mg/mL sample solution was diluted 2-fold to prepare 200 mg/mL sample solution. In the same manner, sample solutions of 100 mg/mL, 50.0 mg/mL, and 25.0 mg/mL were prepared. In addition, 300 mg/mL sample solution was prepared. Thereafter, 0.2 mL of these sample solutions each was mixed with 19.8 mL of BHI (Brain Heart Infusion Agar, Becton Dickinson, MD) medium, thereby preparing agar plates having the sample concentration of 4.0 mg/mL, 3.0 mg/mL, 2.0 mg/mL, 1.0 mg/mL, 0.5 mg/mL, and 0.25 mg/mL in dishes. […] Sterilized water was used for dissolving catechin, because catechin was insoluble in DMSO.
# (§4) As test bacteria, 13 kinds of bacteria, i.e., Streptococcus pneumoniae, Streptococcus pyogenes, Enterococcus faecalis, Staphylococcus aureus, Escherichia coli, Salmonella sp., Yersinia enterocolitica, Vibrio parahaemolyticus, Pseudomonas aeruginosa, Bacillus cereus, Bacillus subtilis MB-32, Bacillus subtilis ATCC6633, and Candida sp., were used. These bacteria each was mixed with 2 mL of sterilized MHB^R liquid medium (Mueller Hinton Broth^R, Becton Dickinson, MD) to prepare bacterial suspension having turbidity 1 (bacterial concentration 10^8/mL). Previously, small test tubes were set into each cell of a grating and sterilized, and 1 mL of 13 bacterial suspensions were added into the small test tubes set in the grating, respectively. By using a microplanter (SAKUMA, model: MIT-P), 10 μL aliquot was collected from each test tube set in the grating and transferred to other test tube, and the transferred bacterial suspensions were diluted 100-fold (bacterial concentration 10^6/mL).
# (§5) By using the microplanter, 10 μL (bacterial number […]) of this bacterial suspension was inoculated onto the plates containing the sample solution of various concentrations. The plates were incubated for 18 hours in an incubator at 37° C., and then a microbicidal activity of each compound was assessed.
# [2] = tested on: Bacillus cereus; on Growth on agar plate: key: +: grew; −: did not grow
# Experimental: as §1, §2, §3, §4, §5
# [3] = tested on: Enterococcus faecalis; further: key: +: grew; −: did not grow
# Experimental: as §1, §2, §3, §4, §5
# [4] = tested on: Salmonella sp. Further: key: +: grew; −: did not grow.
# Experimental: as §1, §2, §3, §4, §5
# [5] = tested on: Streptococcus pyogenes; on Growth on agar plate: key: +: grew; −: did not grow
# Experimental: as §1, §2, §3, §4, §5
# [6] = tested on: Staphylococcus aureus; on Growth on agar plate: key: +: grew; −: did not grow
# Experimental: as §1, §2, §3, §4, §5
# [7] = tested on: Streptococcus pneumoniae; on Growth on agar plate: key: +: grew; −: did not grow
# Experimental: as §1, §2, §3, §4, §5
# [8] = tested on: Vibrio parahaemolyticus; on Growth on agar plate: key: +: grew; −: did not grow
# Experimental: as §1, §2, §3, §4, §5
# [9] = tested on: Pseudomonas aeruginosa; further: key: +: grew; −: did not grow
# Experimental: as §1, §2, §3, §4, §5
# [10] = tested on: Bacillus subtilis MB-32; further: key: +: grew; −: did not grow
# Experimental: as §1, §2, §3, §4, §5
# [11] = tested on: Bacillus subtilis ATCC6633; on Growth on agar plate: key: +: grew; −: did not grow
# Experimental: as §1, §2, §3, §4, §5
# [12] = tested on: Escherichia coli; further: key: +: grew; −: did not grow
# Experimental: as §1, §2, §3, §4, §5
# [13] = tested on: Yersinia enterocolitica; on Growth on agar plate: key: +: grew; −: did not grow
# Experimental: as §1, §2, §3, §4, §5
# [14] = BHI agar, 37° C., 18 hours, read-out: MIC
smiles,measurement,setting,value
"O=C(O)/C=C/c1ccc(O)cc1 [trans-p-Coumaric Acid, trans-p-coumaric acid]",activity (in words),[1],had an activity
same,Growth on agar plate,[1]; 0.25 mg/mL,+
same,Growth on agar plate,[1]; 0.5 mg/mL,+
same,Growth on agar plate,[1]; 1.0 mg/mL,+
same,Growth on agar plate,[1]; 2.0 mg/mL,+
same,Growth on agar plate,[1]; 3.0 mg/mL,−
same,Growth on agar plate,[1]; 4.0 mg/mL,−
same,MIC,[1]; [14],3000 µg/mL
same,activity (in words),[2],had an activity
same,Growth on agar plate,[2]; 0.25 mg/mL,+
same,Growth on agar plate,[2]; 0.5 mg/mL,+
same,Growth on agar plate,[2]; 1.0 mg/mL,+
same,Growth on agar plate,[2]; 2.0 mg/mL,+
same,Growth on agar plate,[2]; 3.0 mg/mL,−
same,Growth on agar plate,[2]; 4.0 mg/mL,−
same,MIC,[2]; [14],3000 µg/mL
same,Growth on agar plate,[3]; 0.25 mg/mL,+
same,Growth on agar plate,[3]; 0.5 mg/mL,+
same,Growth on agar plate,[3]; 1.0 mg/mL,+
same,Growth on agar plate,[3]; 2.0 mg/mL,+
same,Growth on agar plate,[3]; 3.0 mg/mL,+
same,Growth on agar plate,[3]; 4.0 mg/mL,+
same,Growth on agar plate,[4]; 0.25 mg/mL,+
same,Growth on agar plate,[4]; 0.5 mg/mL,+
same,Growth on agar plate,[4]; 1.0 mg/mL,+
same,Growth on agar plate,[4]; 2.0 mg/mL,+
same,Growth on agar plate,[4]; 3.0 mg/mL,+
same,Growth on agar plate,[4]; 4.0 mg/mL,+
same,activity (in words),[5],had an activity
same,Growth on agar plate,[5]; 0.25 mg/mL,+
same,Growth on agar plate,[5]; 0.5 mg/mL,+
same,Growth on agar plate,[5]; 1.0 mg/mL,+
same,Growth on agar plate,[5]; 2.0 mg/mL,+
same,Growth on agar plate,[5]; 3.0 mg/mL,−
same,Growth on agar plate,[5]; 4.0 mg/mL,−
same,MIC,[5]; [14],3000 µg/mL
same,activity (in words),[6],had an activity
same,Growth on agar plate,[6]; 0.25 mg/mL,+
same,Growth on agar plate,[6]; 0.5 mg/mL,+
same,Growth on agar plate,[6]; 1.0 mg/mL,+
same,Growth on agar plate,[6]; 2.0 mg/mL,+
same,Growth on agar plate,[6]; 3.0 mg/mL,+
same,Growth on agar plate,[6]; 4.0 mg/mL,−
same,MIC,[6]; [14],4000 µg/mL
same,activity (in words),[7],had an activity
same,Growth on agar plate,[7]; 0.25 mg/mL,+
same,Growth on agar plate,[7]; 0.5 mg/mL,+
same,Growth on agar plate,[7]; 1.0 mg/mL,+
same,Growth on agar plate,[7]; 2.0 mg/mL,−
same,Growth on agar plate,[7]; 3.0 mg/mL,−
same,Growth on agar plate,[7]; 4.0 mg/mL,−
same,MIC,[7]; [14],2000 µg/mL
same,activity (in words),[8],had an activity
same,Growth on agar plate,[8]; 0.25 mg/mL,+
same,Growth on agar plate,[8]; 0.5 mg/mL,+
same,Growth on agar plate,[8]; 1.0 mg/mL,+
same,Growth on agar plate,[8]; 2.0 mg/mL,+
same,Growth on agar plate,[8]; 3.0 mg/mL,−
same,Growth on agar plate,[8]; 4.0 mg/mL,−
same,MIC,[8]; [14],3000 µg/mL
same,Growth on agar plate,[9]; 0.25 mg/mL,+
same,Growth on agar plate,[9]; 0.5 mg/mL,+
same,Growth on agar plate,[9]; 1.0 mg/mL,+
same,Growth on agar plate,[9]; 2.0 mg/mL,+
same,Growth on agar plate,[9]; 3.0 mg/mL,+
same,Growth on agar plate,[9]; 4.0 mg/mL,+
same,Growth on agar plate,[10]; 0.25 mg/mL,+
same,Growth on agar plate,[10]; 0.5 mg/mL,+
same,Growth on agar plate,[10]; 1.0 mg/mL,+
same,Growth on agar plate,[10]; 2.0 mg/mL,+
same,Growth on agar plate,[10]; 3.0 mg/mL,+
same,Growth on agar plate,[10]; 4.0 mg/mL,+
same,MIC,"[11]; ATCC6633, Bacillus subtilis ATCC 6633, BHI agar, 37° C., 18 hours, read-out: MIC",3000 µg/mL
same,activity (in words),[11]; Bacillus subtilis ATCC6633,had an activity
same,Growth on agar plate,"[11]; Bacillus subtilis ATCC 6633, 0.25 mg/mL",+
same,Growth on agar plate,"[11]; Bacillus subtilis ATCC 6633, 0.5 mg/mL",+
same,Growth on agar plate,"[11]; Bacillus subtilis ATCC 6633, 1.0 mg/mL",+
same,Growth on agar plate,"[11]; Bacillus subtilis ATCC 6633, 2.0 mg/mL",+
same,Growth on agar plate,"[11]; Bacillus subtilis ATCC 6633, 3.0 mg/mL",−
same,Growth on agar plate,"[11]; Bacillus subtilis ATCC 6633, 4.0 mg/mL",−
same,Growth on agar plate,[12]; 0.25 mg/mL,+
same,Growth on agar plate,[12]; 0.5 mg/mL,+
same,Growth on agar plate,[12]; 1.0 mg/mL,+
same,Growth on agar plate,[12]; 2.0 mg/mL,+
same,Growth on agar plate,[12]; 3.0 mg/mL,+
same,Growth on agar plate,[12]; 4.0 mg/mL,+
same,activity (in words),[13],had an activity
same,Growth on agar plate,[13]; 0.25 mg/mL,+
same,Growth on agar plate,[13]; 0.5 mg/mL,+
same,Growth on agar plate,[13]; 1.0 mg/mL,+
same,Growth on agar plate,[13]; 2.0 mg/mL,+
same,Growth on agar plate,[13]; 3.0 mg/mL,+
same,Growth on agar plate,[13]; 4.0 mg/mL,−
same,MIC,[13]; [14],4000 µg/mL
